Reference: patent EP0551200A1, “Protein phosphatase inhibitors for use in therapy” (priority 1992, dated 1993)

Experiments:
Egr-1 mRNA = test: cells; format: cell-based, mouse
Experimental: 10 µg of RNA was applied to each lane and subjected to Northern blot analysis using an Egr-1 specific cDNA probe [1.6 kb Bgl II fragment (Sukhatme et al, Cell 53, 37-48, 1988)]. The same blots were rehybridized with actin or GADPH cDNA for normalizing the amount of RNA loaded. The blots were dried and autoradiographed. • (A). Time course of okadaic acid-induced Egr-1 and c-jun messages in primary human fibroblasts. Quiescent human fibroblasts were induced with 1 µM of okadaic acid for the time periods indicated. […] Time course of okadaic acid-induced Egr-1 message in Balb/c 3T3 cells. Quiescent Balb/c 3T3 cells were induced with okadaic acid (0.5µM) for the times indicated. • (C). Concentration dependent induction of Egr-1 message by okadaic acid in Balb/c 3T3 cells. Quiescent Balb/c 3T3 cells were induced with the indicated concentrations of okadaic acid for 1 h. As controls, different concentrations of DMSO were included. These corresponded to the amounts present in 0.25 µM okadaic acid (0.025% dimethyl sulphoxide (DMSO)) 0.5 µM okadaic acid (0.05% DMSO) and 1 µM okadaic acid (0.1%). • (D). Concentration dependent and time course induction of Egr-1 message by calyculin A. Quiescent Balb/c 3T3 cells were induced with different concentrations of calyculin A for 1 h. Northern analysis of this dose-dependent induction by calyculin A is shown on the left panel of the figure. […] Northern analysis of this time course induction by calyculin A is shown in the right panel of the figure. The same blot was rehybridized with pCMV-fos (Curran et al, Oncogene 2, 79-84, 1987) and pCMV-jun (Rauscher et al, 1988) shown in the middle panel. The blot was dried and autoradiographed.
Quiescent primary human fibroblasts were incubated with okadaic acid (OA) or TPA for 1 or 3 h. The concentrations of OA and TPA were 0.5 µM and 120 ng/ml, respectively. The concentration of 1-(5-isoquinolinylsulfonyl)-2-methylpiperazine dihydrochloride (H7) and N-(2-guanidinoethyl)-5-isoquinolinesulphonamide dihydrochloride (HA1004) used was 25 µM. The cells were pre-treated for 15 min with H7 or HA1004 before they were induced by OA or TPA for 1 or 3 h. Cells were harvested, RNA was isolated and subjected to Northern blot analysis. The blot was probed with Egr-1 or GADPH cDNA. • (B). As a positive control, primary human fibroblasts were treated with TPA (30 ng/ml) for 1 h (1st lane). The fibroblasts were also pre-treated with H7 (25 µM) or HA1004 (25 µM) for 15 min before treatment with TPA for 1 h (2nd and 3rd lanes respectively). […] The blot was probed with Egr-1 or actin cDNA. • (C). Quiescent Balb/c 3T3 cells were incubated with OA, TPA or dBt-cAMP for 1 h or pre-treated with H7 (25 µM) or HA1004 (25 µM) for 15 min and then incubated with each of the agonists for 1 h. Cells were harvested, RNA was isolated and subjected to Northern blot analysis. The concentration of each agonist used was as follows: lane a: 0.5 µM of OA, lane b: 100 ng/ml of TPA, lane c: 1 mM of dBt-cAMP, lane d: H7 plus OA (0.5 µM), lane e: H7 plus TPA (100 ng/ml), lane f: H7 plus dBt-cAMP (1 mM), lane g: HA1004 plus OA (0.5 µM), lane h: HA1004 plus TPA (100 ng.ml), lane i: HA1004 plus dBt-cAMP (1mM). The blot was probed with Egr-1 or GADPH cDNA.
Cell Cultures and Reagents. Human diploid foreskin fibroblasts were a gift from Dr J Vilcek (New York University, New York). The cells were grown in MEM supplemented with 10% fetal bovine serum (Hyclone, Logan, UT, US), Mouse Balb/c 3T3 cells were purchased from the American Type Culture Collection and grown in Dulbecco's MEM (DMEM) supplemented with 10% fetal bovine serum. Okadaic acid, calyculin A, H7, and HA1004 were purchased from Biomol Research Laboratories (Plymouth Meeting, PA, US). TPA, puromycin and dBt-cAMP were purchased from Sigma (St Louis, MO, US) 1 mM stock solutions of okadaic acid or calyculin A were solubilized in DMSO. [³²P]orthophosphate and other radioactive chemicals were purchased from Du Pont-New England Nuclear (Boston, MA). […]

c-jun = test: Northern blot analysis of c-jun gene expression in human fibroblasts; format: cell-based; details: OA 500 nM
Experimental: Quiescent human fibroblasts were incubated with TNF (500 units/ml) (a) or OA (500 nM) (b) for 0, 30, 60 min after which total cellular RNA was extracted. Blots of RNA from these cells were hybridized to radiolabeled (10⁶ cpm/ml) Egr-1 cDNA probe. c, the blot in b was stripped and reprobed with c-jun cDNA. Note: Egr-1 mRNA probe was not completely stripped from the blot. The autoradiograph of the blot is presented. d, regularly maintained cells were incubated wither with no additions (control, 0 time) or with OA for 1, 3, 5, 7 h and Northern analysis was carried out with an IL-6 cDNA probe (ATCC, Rockville, MD, US).
Preparation of RNA and Northern Analysis - Human fibroblasts (4 x 10⁶) were seeded in 175cm² tissue culture flasks and incubated at 37°C for 6 days in regular medium. The cells were fed with regular medium on day 3. On day 6 the medium was replaced by minimal essential medium containing 0.25% fetal calf serum and incubated for another 48 h to maintain the cells in a quiescent state. Quiescent or regularly maintained cells were treated with a specific agonist for the times indicated (see Fig. 7). The cells were harvested and total cytoplasmic RNA isolated by a one-step guanidinium thiocyanate/phenol/chloroform method. […] The blots were autoradiographed and quantitated by the Visage 2000 Image system (BioImage Products, Ann Arbor, MI, US).

In the case of `C=C1[C@@H](O)[C@@H]2O[C@]3(CC[C@H](/C=C/[C@@H](C)[C@@H]4CC(C)=C[C@@]5(O[C@H](C[C@@](C)(O)C(=O)O)CC[C@H]5O)O4)O3)CC[C@H]2O[C@@H]1[C@@H](O)C[C@H](C)[C@H]1O[C@@]2(CCCCO2)CC[C@H]1C` [okadaic acid], the “time for which the Egr-1 mRNA level is maintained” value (Egr-1 mRNA; 0.5 µM) is reported as “up to 7 h”, the “time of maximal induction of Egr-1 mRNA” value (Egr-1 mRNA; 0.5 µM) is reported as “about 2 h” and the “time to induction of Egr-1 mRNA” value (Egr-1 mRNA; 0.5 µM) is reported as no more than 1 h. For the same molecule, the “concentration inducing an equivalent fold increase in Egr-1 mRNA” value (Egr-1 mRNA; 1 h, calyculin A compared with okadaic acid) was 1000 nM, the fold induction at 0.5 µM (Egr-1 mRNA; Mus musculus, BALB/c3T3, 0.5 µM, maintained level, read-out: Egr-1 mRNA level over control) was 30 to 40 and the “time to induction of c-jun” value (c-jun) was no more than 60 min.
